Source: patent US8673617B2, “Culture medium for Haemophilus influenzae type B” (Sanofi Pasteur SA, priority 2007, dated 2014)

Columns and labels:
[1] = system: Haemophilus influenzae serotype b; assay: PRP production in liquid garden pea peptone-based culture medium as a function of heme source (sandwich ELISA on supernatant); assay type: cell-based; conditions: for Mean PRP / PRP in mg/l Assay 1 / PRP in mg/l Assay 2: garden pea medium, 16 h
Experimental: The production of PRP obtained after 16 hours of bacterial culture in liquid plant peptones-based culture media in which the heme source was either hemin or protoporphyrin IX of animal origin (porcine protoporphyrin) in disodium salt form, or protoporphyrin IX of purely synthetic origin in disodium salt form was compared. […] An enzymatic hydrolysate of garden pea peptone provided by Kerry (Hy pea 7404) and a wheat peptone provided by Organotechnie (19559) were tested at a concentration in the culture medium equivalent to 0.87 g/l of protein nitrogen. By reference to the current methods for the production of PRP, PRP production was also measured in a medium that contains a peptone of animal origin, such as casein hydrolysate (HAC) provided by Solabia at a concentration in the medium equivalent to 0.87 g/l with increased concentrations of hemin (see table III).
(§1) 1.1) Preparation of the Media • 1.1.1. Stock solution of β-NAD (Fluka) at 1 g/l in water which was ultrafiltered and then sterilized by filtration through 0.22 μm. • 1.1.2. Stock solution of hemin (Sigma) at 0.25 g/l in water was ultrafiltered, comprising 5 ml of 25% aqueous ammonia (Cooper) to aid dissolution. The stock solution was sterilized by filtration through 0.22 μm. • 1.1.3. Stock solution of porcine protoporphyrin IX (Sigma) at 0.25 g/l in ultrafiltered water comprising 5 ml of 25% aqueous ammonia (Cooper) in order to facilitate the dissolution. The stock solution was sterilized by filtration through 0.22 μm. • 1.1.4. Stock solution of synthetic protoporphyrin IX at 0.25 g/l in ultrafiltered water comprising 5 ml of 25% aqueous ammonia (Cooper) in order to facilitate the dissolution. The stock solution was also heated to 80° C. in a water bath with stirring in order to complete the dissolution before being sterilized by filtration through 0.22 μm. The protoporphyrin IX, in disodium salt form, was synthesized according to the method described in the U.S. provisional patent application Ser. No. 12/057,574, filed Mar. 28, 2008 and application Ser. No. 60/943,735 and filed on Jun. 13, 2007 using the steps which are described in scheme 2. • The stock solutions of hemin and protoporphyrin IX were checked for their respective contents of active compounds after sterilizing filtration. The protoporphyrin IX and hemin contents were determined by Reversed Phase High Performance Liquid Chromatography (RP-HPLC). The chromatographic chain comprises a twin head pump module allowing the formation of a binary gradient, a programmable automatic injector, a diode array UV detector and a chromatographic column of the type Synergi 4 μm, Polar RP-80A (150×4.6) mm, ref 00F-4336-E0, Phenomenex. • The stock solution of hemin (Sigma) to be checked after filtration was diluted ⅓ in distilled water. The stock solutions of porcine protoporphyrin IX (Sigma) and of synthetic protoporphyrin IX to be checked after filtration were diluted ¼ in distilled water. In parallel, a calibration series was prepared in ammoniated water ranging from 0.025 g/l to 0.125 g/l of protoporphyrin IX from porcine protoporphyrin IX from Sigma (ref: 25838-5) and a calibration series ranging from 0.050 g/l to 0.150 g/l of hemin from hemin from Sigma (ref: H5533-256). The samples to be checked and the various solutions of the calibration series were injected in a volume of 20 μl (for the hemin solutions and samples) and of 5 μl (for the protoporphyrin IX solutions and samples). The initial mobile phase consisting of a volume for volume mixture of acetonitrile and 10 mM KH2PO4 pH 2.5 is set at a flow rate of 1 ml/min. A discontinuous gradient was then produced from this mobile phase in order to separate the molecules of interest which are detected at a wavelength of 400 nm. […]

[2] = system: Haemophilus influenzae serotype b; assay: PRP production in liquid casein hydrolysate (HAC) medium with increasing hemin (sandwich ELISA on supernatant); assay type: cell-based; conditions: for Mean PRP / PRP in mg/l Assay 1 / PRP in mg/l Assay 2: HAC medium, 16 h
Experimental: The production of PRP obtained after 16 hours of bacterial culture in liquid plant peptones-based culture media in which the heme source was either hemin or protoporphyrin IX of animal origin (porcine protoporphyrin) in disodium salt form, or protoporphyrin IX of purely synthetic origin in disodium salt form was compared. The hemin and protoporphyrin IX concentration ranges in the culture media varied from about 0.010 g/l to about 2 g/l so as to obtain PRP titration curves as a function of the heme source tested and as a function of the plant peptone tested. An enzymatic hydrolysate of garden pea peptone provided by Kerry (Hy pea 7404) and a wheat peptone provided by Organotechnie (19559) were tested at a concentration in the culture medium equivalent to 0.87 g/l of protein nitrogen. By reference to the current methods for the production of PRP, PRP production was also measured in a medium that contains a peptone of animal origin, such as casein hydrolysate (HAC) provided by Solabia at a concentration in the medium equivalent to 0.87 g/l with increased concentrations of hemin (see table III).
as §1

## C=CC1=C(C)c2cc3[n-]c(cc4nc(cc5[n-]c(cc1n2)c(C)c5CCC(=O)O)C(CCC(=O)O)=C4C)c(C)c3C=C.[Cl-].[Fe+3] [Hemin, hemin, reference compound]
[1]; hemin 11.8 μg/l
  Mean PRP: 4 mg/L
  PRP in mg/l Assay 1: 3.82 mg/L
  PRP in mg/l Assay 2: 3.79 mg/L
[1]; hemin 59 μg/l
  Mean PRP: 7 mg/L
  PRP in mg/l Assay 1: 7.61 mg/L
  PRP in mg/l Assay 2: 7.13 mg/L
[1]; hemin 118 μg/l
  Mean PRP: 20 mg/L
  PRP in mg/l Assay 1: 23.4 mg/L
  PRP in mg/l Assay 2: 17.5 mg/L
[1]; hemin 295 μg/l
  Mean PRP: 48 mg/L
  PRP in mg/l Assay 1: 51.2 mg/L
  PRP in mg/l Assay 2: 45.4 mg/L
[1]; hemin 590 μg/l
  Mean PRP: 84 mg/L
  PRP in mg/l Assay 1: 95.4 mg/L
  PRP in mg/l Assay 2: 72.9 mg/L
[1]; hemin 1180 μg/l
  Mean PRP: 233 mg/L
  PRP in mg/l Assay 1: 234 mg/L
  PRP in mg/l Assay 2: 232 mg/L
[1]; hemin 1770 μg/l
  Mean PRP: 210 mg/L
  PRP in mg/l Assay 1: 209 mg/L
  PRP in mg/l Assay 2: 211 mg/L
[1]; hemin 2360 μg/l
  Mean PRP: 494 mg/L
  PRP in mg/l Assay 1: 505 mg/L
  PRP in mg/l Assay 2: 482 mg/L
[1]; hemin 3540 μg/l
  Mean PRP: 142 mg/L
  PRP in mg/l Assay 1: 129 mg/L
  PRP in mg/l Assay 2: 154 mg/L
[1]; garden pea peptone medium (FIG. 1)
  heme source concentration required for optimum / maximum PRP production: about 2500 μg/l
[1]; plant peptone medium, heme source at 10 μg/l
  production of PRP (in words): insignificant
[1]; plant peptone medium, heme source at 50 μg/l (FIGS. 1 and 2)
  production of PRP: ≤ 10 µg/L
[2]; hemin 11.8 μg/l
  Mean PRP: 16.8 mg/L
  PRP in mg/l Assay 1: 18.9 mg/L
  PRP in mg/l Assay 2: 14.7 mg/L
[2]; hemin 59 μg/l
  Mean PRP: 80.2 mg/L
  PRP in mg/l Assay 1: 82.7 mg/L
  PRP in mg/l Assay 2: 77.7 mg/L
[2]; hemin 118 μg/l
  Mean PRP: 199.5 mg/L
  PRP in mg/l Assay 1: 183 mg/L
  PRP in mg/l Assay 2: 216 mg/L
[2]; hemin 295 μg/l
  Mean PRP: 314.5 mg/L
  PRP in mg/l Assay 1: 325 mg/L
  PRP in mg/l Assay 2: 304 mg/L
[2]; hemin 590 μg/l
  Mean PRP: 410.5 mg/L
  PRP in mg/l Assay 1: 381 mg/L
  PRP in mg/l Assay 2: 440 mg/L
[2]; hemin 1180 μg/l
  Mean PRP: 414.5 mg/L
  PRP in mg/l Assay 1: 424 mg/L
  PRP in mg/l Assay 2: 405 mg/L
[2]; hemin 1770 μg/l
  Mean PRP: 461.5 mg/L
  PRP in mg/l Assay 1: 404 mg/L
  PRP in mg/l Assay 2: 519 mg/L
[2]; hemin 2360 μg/l
  Mean PRP: 464.5 mg/L
  PRP in mg/l Assay 1: 439 mg/L
  PRP in mg/l Assay 2: 490 mg/L
[2]; casein hydrolysate and hemin-based medium
  hemin concentration to obtain about 400 mg/l of PRP: at least 500 μg/l
